In patent publication US9156827B2, “Anticancer agent” (THE UNIVERSITY OF TOKYO, priority 2010, dated 2015):
Counter-ions that a name gives are not always drawn.

Target: pim-1 kinase (Homo sapiens, UniProt P11309)
Experiment: Measurement of pim-1 kinase inhibitory activity (fluorescent substrate peptide, capillary electrophoresis)
Assay type: biochemical
Conditions: 0.1 μM of each compound, 30 μM ATP, 1.5 μM substrate peptide, room temperature 2 hours
Experimental: Measurement of Pim-1 Kinase Inhibitory Activity
The result of the reaction was determined by quantifying the substrate and the phosphorylated reaction product separated by capillary electrophoresis based on difference in charges of the substances (EZ Reader II, Caliper Life Sciences, was used).

pim-1 kinase, sequence (P11309 whole entry): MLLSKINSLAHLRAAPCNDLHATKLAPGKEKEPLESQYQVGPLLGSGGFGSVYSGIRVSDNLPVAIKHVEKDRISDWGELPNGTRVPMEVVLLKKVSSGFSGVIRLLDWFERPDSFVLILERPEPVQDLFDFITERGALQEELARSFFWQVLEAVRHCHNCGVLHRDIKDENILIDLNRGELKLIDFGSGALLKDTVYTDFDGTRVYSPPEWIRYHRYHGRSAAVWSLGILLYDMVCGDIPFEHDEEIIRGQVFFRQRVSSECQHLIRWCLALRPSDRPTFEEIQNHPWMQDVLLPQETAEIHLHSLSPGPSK

Compound	inhibition at 0.1 µM (Table 1) [%]	inhibition at 0.1 µM (Table 2) [%]	further results
O=C1/C(=C/c2c[nH]c3ccc(Cl)cc23)Oc2c1ccc(O)c2CN1CCNCC1 [Compound A21, (Z)-2-[(5-Chloro-1H-indol-3-yl)methylene]-6-hydroxy-7-(piperazin-1-ylmethyl)benzofuran-3(2H)-one dihydrochloride]	94	–	–
COc1ccc2c(c1CN1CCOCC1)O/C(=C\c1n[nH]c3ccccc13)C2=O [Compound B33, (Z)-2-[(1H-Indazol-3-yl)methylene]-6-methoxy-7-(morpholinomethyl)benzofuran-3(2H)-one]	–	39	–
O=C1/C(=C/c2n[nH]c3ccc(Br)cc23)Oc2c1cc(Cl)c(O)c2CN1CCNCC1 [Compound B16, (Z)-5-Chloro-2-[(5-bromo-1H-indazol-3-yl)methylene]-6-hydroxy-7-(piperazin-1-ylmethyl)benzofuran-3(2H)-one]	–	93	–
COc1ccc2c(c1C(C)N1CCNCC1)O/C(=C\c1n[nH]c3ccccc13)C2=O (stereo not shown) [Compound B20, (Z)-2-[(1H-Indazol-3-yl)methylene]-6-methoxy-7-[1-(piperazin-1-yl)-ethyl]benzofuran-3(2H)-one]	–	95	–
CN(C)CCCN1CCN(Cc2c(O)ccc3c2O/C(=C\c2c[nH]c4ccccc24)C3=O)CC1 [Compound A1, (Z)-2-[(1H-Indol-3-yl)methylene]-7-({4-[3-(dimethylamino)propyl]piperazin-1-yl}methyl)-6-hydroxybenzofuran-3(2H)-one]	51	–	–
O=C1/C(=C/c2c[nH]c3ccccc23)Oc2c1ccc(O)c2CN1CCC(O)CC1 [Compound A6, (Z)-2-[(1H-Indol-3-yl)methylene]-6-hydroxy-7-[(4-hydroxypiperidin-1-yl)methyl]benzofuran-3(2H)-one]	15	–	–
CN1CCN(Cc2cc(Cl)cc3c2O/C(=C\c2n[nH]c4ccccc24)C3=O)CC1 [Compound B40, (Z)-2-[(1H-Indazol-3-yl)methylene]-5-chloro-7-[(4-methylpiperazin-1-yl)methyl]benzofuran-3(2H)-one]	–	14	–
C#Cc1ccc2c(/C=C3\Oc4c(ccc(O)c4CN4CCNCC4)C3=O)c[nH]c2n1 [Compound A50, (Z)-2-[(6-Ethynyl-1H-pyrrolo[2,3-b]pyridin-3-yl)methylene]-6-hydroxy-7-(piperazin-1-ylmethyl)benzofuran-3(2H)-one trihydrochloride]	94	–	–
CN1CCN(Cc2c(O)ccc3c2O/C(=C\c2n[nH]c4ccccc24)C3=O)CC1 [Compound B4, (Z)-2-[(1H-Indazol-3-yl)methylene]-6-hydroxy-7-[(4-methylpiperazin-1-yl)methyl]benzofuran-3(2H)-one]	–	41	–
O=C1/C(=C/c2c[nH]c3nc(Cl)ccc23)Oc2c1ccc(O)c2CN1CCNCC1 [Compound A46, (Z)-2-[(6-Chloro-1H-pyrrolo[2,3-b]pyridin-3-yl)methylene]-6-hydroxy-7-(piperazin-1-ylmethyl)benzofuran-3(2H)-one trihydrochloride]	99	–	–
O=C1/C(=C/c2n[nH]c3ccccc23)Oc2c1ccc(OCc1ccccc1)c2CN1CCNCC1 [Compound B28, (Z)-2-[(1H-Indazol-3-yl)methylene]-6-(benzyloxy)-7-(piperazin-ylmethyl)benzofuran-3(2H)-one]	–	–	Pim-1 kinase inhibitory activity (%) (Table 2): 92%
C[C@@H]1CN(Cc2c(O)ccc3c2O/C(=C\c2n[nH]c4ccccc24)C3=O)C[C@H](C)N1 [Compound B2]	–	–	Pim-1 kinase inhibitory activity (%) (Table 2): 61%
O=C1/C(=C/c2c[nH]c3ccccc23)Oc2c1cc(-c1ccccc1)c(O)c2CN1CCNCC1 [Compound A13, (Z)-2-[(1H-Indol-3-yl)methylene]-6-hydroxy-5-phenyl-7-(piperazin-1-ylmethyl)benzofuran-3(2H)-one dihydrochloride]	71	–	–
O=C1/C(=C/c2n[nH]c3ccc(Br)cc23)Oc2c1ccc(O)c2CN1CCNCC1 [Compound B10, (Z)-6-Hydroxy-7-(piperazin-1-ylmethyl)-2-[(5-bromo-1H-indazol-3-yl)methylene]benzofuran-3(2H)-one]	–	94	–
CN(C)CCCN(C)Cc1c(O)ccc2c1O/C(=C\c1c[nH]c3ccccc13)C2=O [Compound A8, (Z)-2-[(1H-Indol-3-yl)methylene]-7-({[3-(dimethylamino)propyl](methyl)amino}methyl)-6-hydroxybenzofuran-3(2H)-one]	20	–	–
Cc1ccc2c(/C=C3\Oc4c(ccc(O)c4CN4CCNCC4)C3=O)c[nH]c2n1 [Compound A48, (Z)-6-Hydroxy-2-[(6-methyl-1H-pyrrolo[2,3-b]pyridin-3-yl)methylene]-7-(piperazin-1-ylmethyl)benzofuran-3(2H)-one trihydrochloride]	97	–	–
CNCc1cccc2c(/C=C3\Oc4c(ccc(O)c4CN4CCNCC4)C3=O)c[nH]c12 [Compound A28, (Z)-6-Hydroxy-2-({7-[(methylamino)methyl]-1H-indol-3-yl}methylene)-7-(piperazin-1-ylmethyl)benzofuran-3(2H)-one trihydrochloride]	10	–	–
COc1ccc2c(c1CN1CCOCC1)O/C(=C\c1c[nH]c3ccccc13)C2=O [Compound A41, (Z)-2-[(1H-Indol-3-yl)methylene]-6-methoxy-7-(morpholinomethyl)benzofuran-3(2H)-one]	40	–	–
O=C1/C(=C/c2n[nH]c3ccccc23)Oc2c1ccc(OCCO)c2CN1CCNCC1 [Compound B34, (Z)-2-[(1H-Indazol-3-yl)methylene]-6-(2-hydroxyethoxy)-7-(piperazin-1-ylmethyl)benzofuran-3(2H)-one]	–	94	–
O=C1/C(=C/c2c[nH]c3cc([N+](=O)[O-])ccc23)Oc2c1ccc(O)c2CN1CCNCC1 [Compound A24, (Z)-6-Hydroxy-2-[(6-nitro-1H-indol-3-yl)methylene]-7-(piperazin-1-ylmethyl)benzofuran-3(2H)-one dihydrochloride]	60	–	–
O=C1/C(=C/c2c[nH]c3ncc(Br)cc23)Oc2c1ccc(O)c2CN1CCNCC1 [Compound A52, (Z)-2-[(5-Bromo-1H-pyrrolo[2,3-b]pyridin-3-yl)methylene]-6-hydroxy-7-(piperazin-1-ylmethyl)benzofuran-3(2H)-one trihydrochloride]	101	–	–
O=C1/C(=C/c2c[nH]c3nc(Br)ccc23)Oc2c1ccc(O)c2CN1CCNCC1 [Compound A47, (Z)-2-[(6-Bromo-1H-pyrrolo[2,3-b]pyridin-3-yl)methylene]-6-hydroxy-7-(piperazin-1-ylmethyl)benzofuran-3(2H)-one trihydrochloride]	98	–	–
COc1ccc2c(c1CN1CCNCC1)O/C(=C\c1c[nH]c3ncccc13)C2=O [Compound A53, (Z)-2-[(1H-Pyrrolo[2,3-b]pyridin-3-yl)methylene]-6-methoxy-7-(piperazin-1-ylmethyl)benzofuran-3(2H)-one]	98	–	–
COc1ccc2c(c1CN1CCN(C)CC1)O/C(=C\c1n[nH]c3ccccc13)C2=O [Compound B32, (Z)-2-[(1H-Indazol-3-yl)methylene]-6-methoxy-7-[(4-methylpiperazin-1-yl)methyl]benzofuran-3(2H)-one]	–	63	–
O=C1CN(Cc2c(O)ccc3c2O/C(=C\c2n[nH]c4ccccc24)C3=O)CCN1 [Compound B6, (Z)-4-({2-[(1H-Indazol-3-yl)methylene]-6-hydroxy-3-oxo-2,3-dihydrobenzofuran-7-yl}methyl)piperazin-2-one]	–	49	–
